# Where no end group is shown, it is not given here.
# Test system: melanin present in the epidermis of human skin samples
# Assay: Depigmenting effect ex vivo on human skin biopsies (Fontana-Masson melanin staining)
# Format: cell-based
# Settings: 2 applications per day
# Experimental: 6 mm diameter biopsies are taken from human skin samples. These biopsies are maintained in ex vivo survival in the presence of a specific medium (DMEM 1 g/L, HAMF12, SVF and antibiotics) on inserts deposited in 6-well plates. The biopsies are then pretreated for 24 hours with the active principle at 3% concentration at a rate of 2 applications per day. Other skin samples will not be pretreated with the active principle and will be used as the control condition. Subsequently, the biopsies are subjected to UVB irradiation at a rate of 100 mJ/cm^2. The pretreated biopsies are again treated for 24 hours with the active principle at 3% concentration at a rate of 2 applications per day. After this second treatment, a quantitative evaluation of the quantity of melanin present in the epidermis of skin samples is carried out histologically, with an optical microscope, after staining according to the Fontana-Masson method.
# To do this, the skin biopsies are enclosed in paraffin and histological sections with a thickness of 4 μm are made. These sections are then stained by the Fontana-Masson technique: The paraffin is removed from the slides; the slides being hydrated and then treated with a silver ammonium hydroxide solution. […]
substance,measurement,setting,value
Asp-Cys-Arg-NH2 [SEQ ID No. 2],"melanin level (pigmentation level) in the epidermis, absence of UVB irradiation","active principle at 3% concentration, 24 hours, no UVB, vs untreated skin, optical microscope",reduces the melanin level
same,melanin synthesis induced by UVB irradiation (pigmentation level after UVB),"pretreated 24 hours at 3%, UVB 100 mJ/cm^2, treated again 24 hours, vs untreated control",very distinctly reduced

# Source: patent US8530623B2, “Proteasome-activating lightening peptides and compositions containing same” (ISP Investments Inc., priority 2009, dated 2013)
